{"source": "a melting point compilation (Tetko et al.; mined from patent text by program, amines drawn as free bases though some values may be those of a salt)"}
{"units": {"melting point": "°C"}}
{"smiles": "[N-]=[N+]=NCCO/N=C(\\C(=O)O)c1csc(N)n1", "melting point": 180}
{"smiles": "O=C(CC(O)=S)c1ccccc1", "melting point": "103 to 105"}
{"smiles": "COC(=O)C(Cc1cc(C(C)(C)C)c(O)c(C)c1C)C(=O)OC", "melting point": "140 to 143"}
{"smiles": "CCOC(=O)c1cn(Cc2ccccc2OC)c2sc(-c3ccc(NC(C)=O)cc3)c(CN(C)Cc3ccccc3)c2c1=O", "melting point": "161 to 163"}
{"smiles": "CCOC(=O)[C@H](Cc1cccc(Oc2ccc(O)cc2)c1)NC(=O)C(F)(F)F", "melting point": "109 to 111"}
{"smiles": "CC=CC=CC(=O)N1CC1C#N", "note": "(stereo not given)", "melting point": "56 to 58"}
{"smiles": "CON=C1CN(c2c(F)c(N)c3c(=O)c(C(=O)O)cn(C4CC4)c3c2F)CC12CN(C)C2", "melting point": "220 to 222"}
{"smiles": "CCC(CC)N(O)C(=O)Nc1ccc(-c2ccccc2)cc1", "melting point": "183 to 184"}
{"smiles": "CCOC(=O)c1scc2c1CN(C)C(=O)c1cncn1-2", "melting point": 208}
{"smiles": "N#CC(C(=O)Nc1ccc(F)cc1F)C(=O)c1ccc[nH]1", "note": "(stereo not given)", "melting point": "169 to 171"}
{"smiles": "CCCCCCCCOc1ccc(-c2ccc(OCC(C)OC(=O)C(C)CC)cc2)cc1", "note": "(stereo not given)", "melting point": 56}
{"smiles": "CCC(CCNC(=O)C(C#N)=Cc1cc(O)c(O)c(OC)c1)NC(=O)C(C#N)=Cc1cc(O)c(O)c(OC)c1", "note": "(stereo not given)", "melting point": 256}
{"smiles": "CC(C)(C)OC(=O)N[C@@H](Cc1cncn1COCc1ccccc1)C(=O)O", "melting point": "155 to 157"}
{"smiles": "CC(C)(C)OC(=O)c1ncn2c1CN(C(=O)N1CCCC1)c1c(F)cccc1-2", "melting point": 214}
{"smiles": "COc1cc2cc(-c3ccccc3C)sc2c(Cl)c1Cl", "melting point": "156 to 157"}
{"smiles": "CC(C)n1nc(-c2cc(C(=O)N3CCOCC3)cnc2-c2ccccc2)ccc1=O", "melting point": "132 to 133"}
{"smiles": "C(=Cc1cncn1Cc1ccccc1)CC(c1ccccc1)c1ccccc1", "melting point": "204 to 206"}
{"smiles": "CCOC(=O)C(=O)Nc1nc(C)cs1", "melting point": "171 to 173"}
{"smiles": "Cc1ccc(C=CC(=O)NN2CC(=O)NC2=O)cc1Cl", "melting point": "271 to 273"}
{"smiles": "COc1c(N=[N+]=[N-])ccnc1C#N", "melting point": 102}
{"smiles": "c1ccc2c(c1)N=C(N1CCCCC1)c1cscc1N2", "melting point": "157 to 159"}
{"smiles": "CCc1nc2c(N)nc3ccccc3c2n1CCCC#Cc1ccccn1", "melting point": "188 to 192"}
{"smiles": "Fc1ccc(Cn2c(NC3CCN(CCNc4nnnn4-c4ccccc4)CC3)nc3ccccc32)cc1", "melting point": 171}
{"smiles": "C=C(c1cn(-c2c(Cl)cc(C(F)(F)F)cc2Cl)nc1C#N)C(F)(F)Cl", "melting point": "113 to 114"}
{"smiles": "CCCCCC1C=CC(c2ccc(Br)cc2)=CC1", "note": "(stereo not given)", "melting point": 74}
{"smiles": "O=C(c1cc(Cl)cc(Cl)c1)N1CCc2cc(S(=O)(=O)N3CC(c4ccccc4)NC3=O)ccc21", "note": "(stereo not given)", "melting point": 236}
{"smiles": "N#Cc1cc(Sc2ccc(Cl)c(Cl)c2)ccc1[N+](=O)[O-]", "melting point": "136 to 138"}
{"smiles": "CCCCn1c(C)nc(N2CCc3ccccc3CC2)c([N+](=O)[O-])c1=O", "melting point": "158 to 161"}
{"smiles": "O=C1OC2(CC(c3cccc(-c4ccccc4)c3)=NO2)c2ccccc21", "note": "(stereo not given)", "melting point": "152 to 159"}
{"smiles": "CN(Cc1cn[nH]c1)C1CCN(C(=O)c2ccc(Nc3nccc(Nc4ccc(F)cc4)n3)cc2)CC1", "melting point": "140 to 145"}
{"smiles": "Cc1cc(-c2cc(COS(C)(=O)=O)c(=O)n(Cc3ccc(Cl)cc3)n2)ccc1F", "melting point": "132 to 133"}
{"smiles": "CC(=O)Nc1c(C(=O)c2ccccc2)[nH]c2cc(C#N)ccc12", "melting point": "244 to 246"}
{"smiles": "CCOC(=O)Nc1c(C(=O)c2ccccc2)[nH]c2cc(Cl)ccc12", "melting point": "159 to 161"}
{"smiles": "CCCCCn1c2ccccc2c2cc(C(=O)N3CCCCC3)ncc21", "melting point": "126 to 127"}
{"smiles": "CCc1ccnc2cc(OC)c(O)cc12", "melting point": "200 to 202"}
{"smiles": "Nc1cc(Sc2ccc3c(C(=O)Nc4cccc(OC(F)(F)F)c4)cccc3c2)ncn1", "melting point": "197 to 199"}
{"smiles": "O=C(O)CCN1C(=O)c2cccc([N+](=O)[O-])c2C1=O", "melting point": "146 to 148"}
{"smiles": "Cc1cc2ncccc2c(=O)[nH]1", "melting point": "244 to 245"}
{"smiles": "CCC(=O)NCc1c[nH]c2ccccc12", "melting point": "91 to 92"}
{"smiles": "C=C(C)COc1ccc(C(=O)C=Cc2cccs2)c(O)c1", "melting point": "119 to 120"}
{"smiles": "CCN1CCc2nc(N3CCN(Cc4ccccc4)CC3)ncc2C1=O", "melting point": "128 to 130"}
{"smiles": "CSc1ccc(NC(=O)C(C#N)C(=O)c2cccn2C)cc1", "note": "(stereo not given)", "melting point": "167 to 168"}
{"smiles": "CC(C)[C@H](NC(=O)OCC1c2ccccc2-c2ccccc21)C(=O)N[C@@H](C)C(=O)O", "melting point": "122 to 123"}
{"smiles": "O=S(=O)(NCC(O)(Cn1cncn1)c1ccc(Cl)cc1Cl)c1cccs1", "note": "(stereo not given)", "melting point": "169 to 180"}
{"smiles": "Cc1nc(Cl)c2c(-c3ccc([N+](=O)[O-])o3)nn(C)c2n1", "melting point": 212}
{"smiles": "COc1ccc(CC2=Cc3ncccc3Nc3cccnc32)cc1", "melting point": "124 to 127"}
{"smiles": "CCNC(=O)n1nc(Oc2ccc([N+](=O)[O-])cc2C(F)(F)F)cc1C", "melting point": "95 to 97"}
{"smiles": "C=CCc1cc2c(cc1O)CC(=O)N2CC", "melting point": "130 to 131"}
{"smiles": "CCc1nn(CCO)c(CC)c1Oc1cc(C#N)cc(S(C)(=O)=O)c1", "melting point": 133}
{"smiles": "CC(C)(CCl)C(=O)N(O)Cc1ccccc1Cl", "melting point": "108 to 110"}
{"smiles": "CON(C)C(=O)Nc1ccc(OCCc2ccc(C)cc2C)cc1", "melting point": "95 to 95.5"}
{"smiles": "c1cc(-c2nc(-c3cnccn3)n[nH]2)ccn1", "melting point": "251 to 252"}
{"smiles": "COc1ccc(CCNC(=O)C(F)(F)F)cc1S(=O)(=O)N=CN(C)C", "melting point": "143 to 144"}
{"smiles": "CCOC(=O)c1cc(OCc2ccccc2)c2ccc(Br)cc2c1", "melting point": 105}
{"smiles": "CS(=O)(=O)c1ccc(-c2nn3c(c2-c2ccc(F)cc2)OCCC3)cc1", "melting point": "198 to 200"}
{"smiles": "COc1ccc(C(=O)C=Cc2ccccc2O)c(OC)c1OC", "melting point": 123}
{"smiles": "Cc1ccc(Sc2cncc3sc(C(N)=O)cc23)c(C)c1", "melting point": "193 to 195"}
{"smiles": "COC(=O)c1cncc(OC2SCC(OC(C)=O)C(OC(C)=O)C2OC(C)=O)c1", "note": "(stereo not given)", "melting point": 50}
{"smiles": "CCOC(=O)Cc1sc(Sc2nccc(C)c2C(=O)OCC)nc1C", "melting point": "85 to 87"}
{"smiles": "CC(C)NC(=O)NCCSCc1ccc(CN(C)C)o1", "melting point": "65 to 67"}
{"smiles": "Cc1ccc(-c2cncc(CN3CC=C(c4ccccc4)CC3)c2)cc1", "melting point": "133 to 135"}
{"smiles": "CCOC(=O)C(C#N)=CC=CN(C)C", "melting point": "134 to 135"}
{"smiles": "Cc1cc(N)nc(C)c1-c1ccccc1", "melting point": "105 to 112"}
{"smiles": "O=C(Cc1ccncc1)Nc1cccc(-c2ccnc3c(C(=O)c4cccs4)cnn23)c1", "melting point": "130 to 131"}
{"smiles": "O=C(CN1CCNC1=O)N1CCC(C2c3ncc(Br)cc3CCc3cc(Cl)cc(Br)c32)CC1", "note": "(single isomer, unassigned; (+))", "melting point": "167 to 168"}
{"smiles": "CCCCCCCCc1cc2c(s1)-n1c(C)nnc1CN=C2c1ccccc1Cl", "melting point": "80 to 82"}
{"smiles": "CCN1c2ccc(C#N)cc2N(CCCCS(=O)(=O)O)C1C", "note": "(stereo not given)", "melting point": "> 260"}
{"smiles": "Fc1cc2c(Nc3ccc(OCc4ccccn4)c(Cl)c3)ncnc2cn1", "melting point": "216 to 219"}
{"smiles": "COc1cnc(Cl)n2nc(N)nc12", "melting point": 251}
{"smiles": "O=C(NC(CO)C(=O)N1CCN(CCCc2ccccc2)CC1)OCc1ccccc1", "note": "(stereo not given)", "melting point": "95 to 97"}
{"smiles": "COc1cc2ncc(C#N)c(Nc3ccc(CCO)cc3)c2cc1OC", "melting point": "208 to 210"}
{"smiles": "CC1CN(C(=O)N(c2ccccc2)c2ccccc2)CCN1C(=O)N(c1ccccc1)c1ccccc1", "note": "(stereo not given)", "melting point": "200 to 202"}
{"smiles": "CCOC(=O)CN(CC(=O)OCC)c1ccc(C=O)c(O)c1", "melting point": 190}
{"smiles": "COc1cc(OCc2ccccn2)ccc1/C=C/c1cc(/C=C/c2cccc3cc[nH]c23)n[nH]1", "melting point": "99 to 110"}
{"smiles": "CCOCc1nc2c(N)nc(C)c(C)c2n1CCC1CCN(C(=O)N2CCOCC2)CC1", "melting point": "158 to 160"}
{"smiles": "N#Cc1cnc2sc(-c3cccc(C=O)c3)cc2c1Nc1ccc2[nH]ccc2c1", "melting point": "221 to 223"}
{"smiles": "CCOc1ccccc1OCC(O)CN", "note": "(single isomer, unassigned; (-))", "melting point": 87}
{"smiles": "Cc1cnc2c(C#N)cnn2c1-c1ccc(Cl)cc1", "melting point": "154 to 157"}
{"smiles": "CC(C)Nc1nc2cc(Cl)c(Cl)cc2n1[C@H]1O[C@@H](C)[C@H](O)[C@@H]1O", "melting point": "103 to 105"}
{"smiles": "CC(C)(C)NN=C(O)C(=O)c1ccccc1", "melting point": "138 to 139"}
{"smiles": "CN1C(=O)[C@H](NC(=O)CCCc2ccccc2)N=C(c2ccccc2)c2ccccc21", "melting point": "65 to 74"}
{"smiles": "Cc1c(C(=O)Nc2ccc(N3CCC(N4CCC(=O)CC4)CC3)c(C#N)c2)cnn1-c1ccc(Cl)cc1", "melting point": 213}
{"smiles": "Cc1ccc(NC(=O)Nc2ccc(Oc3cc(Cl)ncn3)cc2)cc1", "melting point": "217 to 219"}
{"smiles": "COc1ccc(OC)c2c(N=[N+]=[N-])ccnc12", "melting point": 106}
{"smiles": "O=C(CC(NC(=O)COCc1ccccc1)c1ccccc1)Nc1n[nH]c(=S)s1", "note": "(stereo not given)", "melting point": "190 to 191"}
{"smiles": "O=C(O)c1ccnc(NC(=O)C(Cc2ccccc2)NP(=O)(O)O)c1", "note": "(stereo not given)", "melting point": "135 to 137"}
{"smiles": "O=C1CCCc2c(-c3ccncc3)[nH]c(-c3ccccc3)c21", "melting point": "259 to 260"}
{"smiles": "OCc1ccc(-c2ccc3nnn(Cc4ccc5ncccc5c4)c3n2)cc1F", "melting point": "202 to 204"}
{"smiles": "O=C1OC(c2ccccc2)=NC1=Cc1cc(Cl)ccc1Sc1cccs1", "melting point": "125 to 127"}
{"smiles": "CCOC(=O)C=Cc1ccc(NC(=O)Nc2cccnc2)cc1", "melting point": "188 to 189"}
{"smiles": "CN(C)Cc1cc2nc(C(=O)O)c(=O)[nH]c2cc1[N+](=O)[O-]", "melting point": "> 300"}
{"smiles": "O=C(O)CCSC1c2ccccc2COc2ccc(OCc3ccc4cc(F)ccc4n3)cc21", "note": "(stereo not given)", "melting point": "167 to 171"}
{"smiles": "Cc1c(-c2cc(Nc3cc4n(n3)CCN(C)C4)c(=O)n(COP(=O)(OCCC#N)OCCC#N)n2)cccc1N1Cc2cc(C(C)(C)C)sc2C1=O", "melting point": "208 to 210"}
{"smiles": "CN1CCC(NC(c2cccc([N+](=O)[O-])c2)c2nc3ccccc3[nH]2)CC1", "note": "(stereo not given)", "melting point": 254}
{"smiles": "C=C1CCN(c2ccc(Cl)cc2)C1=O", "melting point": "119 to 120"}
{"smiles": "CN(C(=O)Nc1ccc(Cl)c(Cl)c1)S(C)(=O)=O", "melting point": 140}
{"smiles": "Nc1ccccc1C(=O)NCCN1CCC(n2c(=O)[nH]c3cc(Cl)ccc32)CC1", "melting point": 227}
{"smiles": "CC(C)(O)c1ccc(CNC(=O)c2cccnc2Oc2ccc3ncsc3c2)cc1", "melting point": "195 to 197"}
{"smiles": "CCN(CC)C(=O)c1c(OC)ccc2cc(Br)ccc12", "melting point": "109 to 110"}
{"smiles": "Cn1c(-c2ccccc2Cl)nnc1-c1ccccc1Cl", "melting point": 140}
